Source: patent publication US20210121527A1, “METHODS OF TREATING MINIMAL RESIDUAL CANCER” (ICAHN SCHOOL OF MEDICINE AT MOUNT SINAI, priority 2018, published 2021)

What was measured:
Assay in all cases: DiscoveRx scanMAX kinase profiling
Type in all cases: binding
[1] = target: T1, ERK3 (MAPK6) (Homo sapiens, UniProt Q16659); conditions: read-out: Direct inhibitory activity on ERK3 (KINOMEscan)
T1 construct: purchased DiscoverX (San Diego, Calif.) scanMAX
Experimental: (§1) Biochemical assays: Recombinant human EIF2AK3 (PERK) catalytic domain (amino acids 536-1116; Cat # PV5107), GFP-eIF2a (Cat # PV4809) substrate, and Terbium-labelled phospho-eIF2a antibody (Cat # PR8956B) were purchased from Invitrogen (Carlsbad, Calif.). HIS-SUMO-GCN2 catalytic domain (amino acids 584-1019) was expressed and purified from E. coli. TR-FRET kinase assays were performed in the absence or presence of inhibitors in a reaction buffer consisting of 50 mM HEPES, pH 7.5, 10 mMMgCl2, 1.0 mM EGTA, and 0.01% Brij-35, and 100-200 nM GFP-eIF2a substrate. […] Following the addition of test compound, the reaction was initiated by addition of enzyme and incubated at room temperature for 45 minutes. The reaction was stopped by addition of EDTA to a final concentration of 10 mM and Terbium-labelled phospho-eIF2α antibody was added at a final concentration of 2 nM and incubated for 90 minutes. The resulting fluorescence was monitored in an EnVison® Multilabel reader (PerkinElmer, Waltham, Mass.). TR-FRET ratios and the resulting IC50 values were determined from the fitted inhibition curves. Biochemical specificity profiling was performed at Cerep (Redmond, Wash.) and DiscoverX (San Diego, Calif.).

[2] = target: T2, EGFR (Homo sapiens, UniProt P00533); conditions: read-out: Direct inhibitory activity on EGFR (KINOMEscan)
T2 construct: purchased DiscoverX (San Diego, Calif.) scanMAX
T2 sequence (P00533 25-1210): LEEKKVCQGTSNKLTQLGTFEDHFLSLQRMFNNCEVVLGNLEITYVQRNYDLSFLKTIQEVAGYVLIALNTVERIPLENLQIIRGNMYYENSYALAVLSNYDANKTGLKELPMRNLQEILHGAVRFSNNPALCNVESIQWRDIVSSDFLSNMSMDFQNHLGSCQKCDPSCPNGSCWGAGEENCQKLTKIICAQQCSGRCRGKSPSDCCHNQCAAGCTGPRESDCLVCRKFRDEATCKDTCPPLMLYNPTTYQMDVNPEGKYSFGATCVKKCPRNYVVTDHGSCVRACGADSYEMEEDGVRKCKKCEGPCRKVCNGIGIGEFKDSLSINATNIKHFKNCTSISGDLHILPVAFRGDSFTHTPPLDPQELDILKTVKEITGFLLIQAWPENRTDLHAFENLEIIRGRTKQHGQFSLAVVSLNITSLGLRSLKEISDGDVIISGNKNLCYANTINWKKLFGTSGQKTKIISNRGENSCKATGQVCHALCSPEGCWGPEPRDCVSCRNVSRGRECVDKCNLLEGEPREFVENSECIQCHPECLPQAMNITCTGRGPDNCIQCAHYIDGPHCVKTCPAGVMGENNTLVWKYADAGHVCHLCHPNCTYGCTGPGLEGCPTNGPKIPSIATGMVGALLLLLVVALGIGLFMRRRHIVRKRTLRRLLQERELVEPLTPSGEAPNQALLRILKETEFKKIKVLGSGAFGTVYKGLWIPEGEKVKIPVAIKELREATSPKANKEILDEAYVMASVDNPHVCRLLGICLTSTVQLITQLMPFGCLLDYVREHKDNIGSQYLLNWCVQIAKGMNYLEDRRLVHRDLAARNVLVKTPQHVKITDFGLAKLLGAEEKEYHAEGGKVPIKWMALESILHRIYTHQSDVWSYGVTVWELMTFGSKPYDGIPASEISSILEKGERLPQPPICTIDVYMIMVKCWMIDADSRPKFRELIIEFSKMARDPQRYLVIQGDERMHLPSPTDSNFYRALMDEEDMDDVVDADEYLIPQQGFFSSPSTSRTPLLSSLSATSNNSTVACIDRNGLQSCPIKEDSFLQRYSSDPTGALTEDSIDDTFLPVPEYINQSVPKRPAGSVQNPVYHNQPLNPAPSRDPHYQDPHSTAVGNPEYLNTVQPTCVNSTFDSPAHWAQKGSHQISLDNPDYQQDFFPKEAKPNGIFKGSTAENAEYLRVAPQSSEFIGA
Experimental: as §1

[3] = target: T3, ERBB4 (Homo sapiens, UniProt Q15303); conditions: read-out: Direct inhibitory activity on ERBB4 (KINOMEscan)
T3 construct: purchased DiscoverX (San Diego, Calif.) scanMAX
T3 sequence (Q15303 26-1308): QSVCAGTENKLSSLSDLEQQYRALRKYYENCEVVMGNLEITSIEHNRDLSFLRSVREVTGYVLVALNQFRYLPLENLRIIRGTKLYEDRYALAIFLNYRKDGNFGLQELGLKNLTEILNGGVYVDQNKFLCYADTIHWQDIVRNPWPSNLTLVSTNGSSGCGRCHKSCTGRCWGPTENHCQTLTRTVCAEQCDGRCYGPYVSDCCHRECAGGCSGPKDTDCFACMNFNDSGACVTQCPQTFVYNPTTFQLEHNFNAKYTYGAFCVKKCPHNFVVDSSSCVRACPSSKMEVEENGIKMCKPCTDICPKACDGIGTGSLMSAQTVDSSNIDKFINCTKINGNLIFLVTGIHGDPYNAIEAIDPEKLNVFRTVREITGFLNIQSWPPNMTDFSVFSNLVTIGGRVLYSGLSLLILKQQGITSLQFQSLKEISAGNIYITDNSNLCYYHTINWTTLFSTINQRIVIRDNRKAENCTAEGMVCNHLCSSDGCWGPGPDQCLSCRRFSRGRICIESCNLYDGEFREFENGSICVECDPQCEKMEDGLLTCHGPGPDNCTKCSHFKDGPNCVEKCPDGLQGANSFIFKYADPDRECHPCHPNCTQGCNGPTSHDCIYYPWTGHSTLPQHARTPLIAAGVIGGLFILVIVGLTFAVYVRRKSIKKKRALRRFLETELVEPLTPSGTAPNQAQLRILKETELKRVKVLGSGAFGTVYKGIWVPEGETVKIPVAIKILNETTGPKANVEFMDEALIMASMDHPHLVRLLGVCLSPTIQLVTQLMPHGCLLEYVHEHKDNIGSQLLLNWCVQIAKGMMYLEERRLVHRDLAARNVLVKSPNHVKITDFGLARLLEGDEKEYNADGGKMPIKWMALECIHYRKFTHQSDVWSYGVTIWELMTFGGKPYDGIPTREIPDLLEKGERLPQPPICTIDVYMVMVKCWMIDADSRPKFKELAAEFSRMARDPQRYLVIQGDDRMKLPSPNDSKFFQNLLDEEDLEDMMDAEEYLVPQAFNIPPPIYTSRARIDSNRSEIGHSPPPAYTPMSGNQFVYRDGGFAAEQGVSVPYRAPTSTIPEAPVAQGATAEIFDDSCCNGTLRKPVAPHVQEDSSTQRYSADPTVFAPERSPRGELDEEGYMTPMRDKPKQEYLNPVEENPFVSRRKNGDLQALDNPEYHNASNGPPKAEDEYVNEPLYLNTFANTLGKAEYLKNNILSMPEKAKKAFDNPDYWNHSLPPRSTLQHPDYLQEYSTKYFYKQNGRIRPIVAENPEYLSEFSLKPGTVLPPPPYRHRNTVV
Experimental: as §1

[4] = target: T4, CSK (Homo sapiens, UniProt P41240); conditions: read-out: Direct inhibitory activity on CSK (KINOMEscan)
T4 construct: purchased DiscoverX (San Diego, Calif.)
T4 sequence (P41240 whole entry): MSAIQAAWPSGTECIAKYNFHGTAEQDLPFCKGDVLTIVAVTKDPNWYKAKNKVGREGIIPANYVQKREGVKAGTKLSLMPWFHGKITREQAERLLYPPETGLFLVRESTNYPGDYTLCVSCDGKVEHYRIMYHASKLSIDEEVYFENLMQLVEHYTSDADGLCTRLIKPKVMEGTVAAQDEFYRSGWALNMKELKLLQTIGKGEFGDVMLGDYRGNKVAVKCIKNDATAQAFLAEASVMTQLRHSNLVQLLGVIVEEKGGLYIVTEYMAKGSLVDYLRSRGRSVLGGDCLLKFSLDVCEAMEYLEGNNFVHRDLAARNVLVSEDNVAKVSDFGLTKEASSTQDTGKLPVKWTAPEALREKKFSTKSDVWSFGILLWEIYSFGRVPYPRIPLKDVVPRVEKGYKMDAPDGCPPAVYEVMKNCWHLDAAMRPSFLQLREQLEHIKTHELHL
Experimental: as §1

[5] = target: T5, AKT1 (Homo sapiens, UniProt P31749); conditions: read-out: Direct inhibitory activity on AKT1 (KINOMEscan)
T5 construct: purchased DiscoverX (San Diego, Calif.) scanMAX
Experimental: as §1

[6] = target: T6, AKT3 (Homo sapiens, UniProt Q9Y243); conditions: read-out: Direct inhibitory activity on AKT3 (KINOMEscan)
T6 construct: purchased DiscoverX (San Diego, Calif.) scanMAX
Experimental: as §1

[7] = target: T7, PIK3CG (Homo sapiens, UniProt P48736); conditions: read-out: Direct inhibitory activity on PIK3CG (KINOMEscan)
T7 construct: purchased DiscoverX (San Diego, Calif.)
T7 sequence (P48736 whole entry): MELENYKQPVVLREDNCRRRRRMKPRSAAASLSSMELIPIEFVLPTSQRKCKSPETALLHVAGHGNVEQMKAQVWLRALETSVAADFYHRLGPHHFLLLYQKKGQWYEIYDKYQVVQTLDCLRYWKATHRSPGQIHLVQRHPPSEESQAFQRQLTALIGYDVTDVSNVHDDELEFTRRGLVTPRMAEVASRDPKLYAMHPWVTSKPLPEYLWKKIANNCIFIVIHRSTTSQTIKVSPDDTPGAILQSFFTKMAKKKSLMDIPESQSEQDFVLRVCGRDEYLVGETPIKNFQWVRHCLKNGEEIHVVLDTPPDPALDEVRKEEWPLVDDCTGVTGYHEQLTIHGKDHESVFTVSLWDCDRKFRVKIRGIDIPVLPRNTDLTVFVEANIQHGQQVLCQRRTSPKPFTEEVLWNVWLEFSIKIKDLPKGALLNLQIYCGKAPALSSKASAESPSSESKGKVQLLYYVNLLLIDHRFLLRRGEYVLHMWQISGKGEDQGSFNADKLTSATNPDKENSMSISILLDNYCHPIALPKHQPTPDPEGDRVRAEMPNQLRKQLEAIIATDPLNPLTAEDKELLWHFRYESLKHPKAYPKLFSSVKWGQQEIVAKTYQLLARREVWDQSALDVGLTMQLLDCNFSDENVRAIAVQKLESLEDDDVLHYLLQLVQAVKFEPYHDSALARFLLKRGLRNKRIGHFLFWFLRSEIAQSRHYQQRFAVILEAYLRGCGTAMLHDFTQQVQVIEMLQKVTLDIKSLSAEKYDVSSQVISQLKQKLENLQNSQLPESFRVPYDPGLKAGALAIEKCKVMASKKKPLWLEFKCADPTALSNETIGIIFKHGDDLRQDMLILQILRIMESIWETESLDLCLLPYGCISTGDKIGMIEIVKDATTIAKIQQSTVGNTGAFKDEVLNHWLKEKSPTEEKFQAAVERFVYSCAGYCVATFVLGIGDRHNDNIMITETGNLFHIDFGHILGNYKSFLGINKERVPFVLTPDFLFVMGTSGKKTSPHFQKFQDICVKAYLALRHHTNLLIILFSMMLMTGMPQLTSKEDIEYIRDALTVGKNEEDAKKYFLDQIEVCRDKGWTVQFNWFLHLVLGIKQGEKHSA
Experimental: as §1

[8] = target: T8, AKT2 (Homo sapiens, UniProt P31751); conditions: read-out: Direct inhibitory activity on AKT2 (KINOMEscan)
T8 construct: purchased DiscoverX (San Diego, Calif.) scanMAX
Experimental: as §1

[9] = target: T9, EIF2AK1 (Homo sapiens, UniProt Q9BQI3); conditions: read-out: Inhibition of EIF2AK1 (KINOMEscan)
T9 construct: purchased DiscoverX (San Diego, Calif.) scanMAX
Experimental: as §1

[10] = target: T10, PYK2 (PTK2B) (Homo sapiens, UniProt Q14289); conditions: read-out: Direct inhibitory activity on PYK2 (KINOMEscan)
T10 construct: purchased DiscoverX (San Diego, Calif.)
T10 sequence (Q14289 whole entry): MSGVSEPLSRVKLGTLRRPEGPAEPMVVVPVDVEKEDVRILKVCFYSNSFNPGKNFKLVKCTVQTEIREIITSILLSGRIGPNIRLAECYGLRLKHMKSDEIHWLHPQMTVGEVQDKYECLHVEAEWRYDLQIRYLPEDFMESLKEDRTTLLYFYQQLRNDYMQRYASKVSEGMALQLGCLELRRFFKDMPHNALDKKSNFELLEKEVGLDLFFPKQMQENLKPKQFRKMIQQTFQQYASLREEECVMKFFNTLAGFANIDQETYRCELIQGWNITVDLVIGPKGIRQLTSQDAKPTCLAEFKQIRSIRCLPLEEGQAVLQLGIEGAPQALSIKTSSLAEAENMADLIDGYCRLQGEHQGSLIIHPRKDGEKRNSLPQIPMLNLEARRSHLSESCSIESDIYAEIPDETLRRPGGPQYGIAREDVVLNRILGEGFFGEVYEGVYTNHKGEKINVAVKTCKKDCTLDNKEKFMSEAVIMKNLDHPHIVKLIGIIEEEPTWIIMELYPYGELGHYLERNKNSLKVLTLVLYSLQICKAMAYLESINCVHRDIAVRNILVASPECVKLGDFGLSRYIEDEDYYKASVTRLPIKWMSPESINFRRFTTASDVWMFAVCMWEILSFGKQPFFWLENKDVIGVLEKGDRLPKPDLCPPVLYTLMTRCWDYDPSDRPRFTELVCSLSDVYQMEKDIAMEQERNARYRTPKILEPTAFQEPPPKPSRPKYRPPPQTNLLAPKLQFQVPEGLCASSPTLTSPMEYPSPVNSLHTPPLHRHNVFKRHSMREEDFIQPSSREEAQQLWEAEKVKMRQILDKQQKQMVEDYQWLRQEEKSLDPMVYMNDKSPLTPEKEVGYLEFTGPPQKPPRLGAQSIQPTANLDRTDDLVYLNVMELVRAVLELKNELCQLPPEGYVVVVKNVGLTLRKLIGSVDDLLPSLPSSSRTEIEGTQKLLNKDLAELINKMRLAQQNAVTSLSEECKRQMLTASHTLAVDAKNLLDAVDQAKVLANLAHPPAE
Experimental: as §1

[11] = target: T11, SRC (Homo sapiens, UniProt P12931); conditions: read-out: Direct inhibitory activity on SRC (KINOMEscan)
T11 construct: purchased DiscoverX (San Diego, Calif.) scanMAX
Experimental: as §1

[12] = target: T12, S6K1 (RPS6KB1) (Homo sapiens, UniProt P23443); conditions: read-out: Direct inhibitory activity on S6K1 (KINOMEscan)
T12 construct: purchased DiscoverX (San Diego, Calif.) scanMAX
Experimental: as §1

[13] = target: T13, ERK4 (MAPK4) (Homo sapiens, UniProt P31152); conditions: read-out: Direct inhibitory activity on ERK4 (KINOMEscan)
T13 construct: purchased DiscoverX (San Diego, Calif.) scanMAX
Experimental: as §1

[14] = target: T14, ERK2 (MAPK1) (Homo sapiens, UniProt P28482); conditions: read-out: Direct inhibitory activity on ERK2 (KINOMEscan)
T14 construct: purchased DiscoverX (San Diego, Calif.) scanMAX
Experimental: as §1

## Cc1cc(NC(=O)[C@H](O)c2cc(F)cc(F)c2)ccc1-c1cnc(N)c(C(=O)NC(C)C)c1 [LY4, 2-amino-5-[4-[[(2R)-2-(3,5-difluorophenyl)-2-hydroxy-acetyl]amino]-2-methyl-phenyl]-N-isopropyl-pyridine-3-carboxamide]
[1]
  inhibition at 0.2 µM: 0%
  inhibition at 2 µM: 32%
  inhibition at 20 µM: 3%
[2]
  inhibition at 0.2 µM: 30%
  inhibition at 2 µM: 23%
  inhibition at 20 µM: 16%
[3]
  inhibition at 0.2 µM: 0%
  inhibition at 2 µM: 0%
  inhibition at 20 µM: 4%
[4]
  inhibition at 0.2 µM: 31%
  inhibition at 2 µM: 0%
  inhibition at 20 µM: 14%
[5]
  inhibition at 0.2 µM: 0%
  inhibition at 2 µM: 5%
  inhibition at 20 µM: 0%
[6]
  inhibition at 0.2 µM: 0%
  inhibition at 2 µM: 0%
  inhibition at 20 µM: 13%
[7]
  inhibition at 0.2 µM: 24%
  inhibition at 2 µM: 0%
  inhibition at 20 µM: 26%
[8]
  inhibition at 0.2 µM: 0%
  inhibition at 2 µM: 0%
  inhibition at 20 µM: 0%
[9]
  inhibition at 0.2 µM: 0%
  inhibition at 2 µM: 0%
  inhibition at 20 µM: 35%
[10]
  inhibition at 0.2 µM: 0%
  inhibition at 2 µM: 0%
  inhibition at 20 µM: 6%
[11]
  inhibition at 0.2 µM: 0%
  inhibition at 2 µM: 1%
  inhibition at 20 µM: 11%
[12]
  inhibition at 0.2 µM: 31%
  inhibition at 2 µM: 0%
  inhibition at 20 µM: 24%
[13]
  inhibition at 0.2 µM: 0%
  inhibition at 2 µM: 0%
  inhibition at 20 µM: 0%
[14]
  inhibition at 0.2 µM: 0%
  inhibition at 2 µM: 0%
  inhibition at 20 µM: 1%

## Cc1cccc(CC(=O)N2CCc3c2ccc(-c2cn(C)c4ncnc(N)c24)c3F)n1 [GSK2656157, reference compound]
[1]
  inhibition at 0.2 µM: 0%
  inhibition at 2 µM: 16%
  inhibition at 20 µM: 0%
[2]
  inhibition at 0.2 µM: 18%
  inhibition at 2 µM: 16%
  inhibition at 20 µM: 50%
[3]
  inhibition at 0.2 µM: 0%
  inhibition at 2 µM: 0%
  inhibition at 20 µM: 0%
[4]
  inhibition at 0.2 µM: 0%
  inhibition at 2 µM: 33%
  inhibition at 20 µM: 64%
[5]
  inhibition at 0.2 µM: 14%
  inhibition at 2 µM: 32%
  inhibition at 20 µM: 0%
[6]
  inhibition at 0.2 µM: 24%
  inhibition at 2 µM: 7%
  inhibition at 20 µM: 0%
[7]
  inhibition at 0.2 µM: 36%
  inhibition at 2 µM: 47%
  inhibition at 20 µM: 50%
[8]
  inhibition at 0.2 µM: 0%
  inhibition at 2 µM: 4%
  inhibition at 20 µM: 8%
[9]
  inhibition at 0.2 µM: 8%
  inhibition at 2 µM: 77%
  inhibition at 20 µM: 95%
[10]
  inhibition at 0.2 µM: 0%
  inhibition at 2 µM: 0%
  inhibition at 20 µM: 3%
[11]
  inhibition at 0.2 µM: 10%
  inhibition at 2 µM: 45%
  inhibition at 20 µM: 69%
[12]
  inhibition at 0.2 µM: 0%
  inhibition at 2 µM: 30%
  inhibition at 20 µM: 56%
[13]
  inhibition at 0.2 µM: 0%
  inhibition at 2 µM: 35%
  inhibition at 20 µM: 0%
[14]
  inhibition at 0.2 µM: 0%
  inhibition at 2 µM: 0%
  inhibition at 20 µM: 0%
